{"source": "patent US20230263900A1", "about": "“DENDRIMER-DRUG CONJUGATE” (priority 2020, published 2023)", "assay": "Pharmacokinetic studies of RHa-5 and RHa-15, single IV or SC administration, compared with RDV", "assay_type": "in vivo, animals (mammals)", "details": "in vivo, iv", "experimental": "Studies were undertaken to investigate the pharmacokinetic (PK) profile of two Remdesivir dendrimer conjugates following single intravenous (IV) or subcutaneous (SC) administration, and to compare them with that of Remdesivir (RDV).\nThe study consisted of two phases (PK Phase 1 and PK Phase 2) in a total of 6 animals (age 36-48 months) each part separated by a washout period: • PK Phase 1: Four animals (mammals) were studied. One male and one female were administered RHa-5 (BHALys [Lys]2[Lys]2[Lys]8[Lys]16[Lys]32[(α-NH-6N-TDA-Remdesivir)32(ε-NH-COPEG2000)32] 20% Remdesivir loading w/w) (test item) intravenously; and one male and one female were administered RHa-5 subcutaneously. Blood samples were taken over a period of 7 days. A minimum washout period of 14 days took place between the last blood sampling point of the PK Phase 1 and the start of PK Phase 2. • PK Phase 2: Six animals (mammals) were studied. One male and one female were administered RHa-15 (BHALys[Lys]2[Lys]4[Lys]8[Lys]16[Lys]32[(α-NH-3′ O-TDA-Remdesivir)32(ε-NH-COPEG2000)32] 18.63% Remdesivir loading w/w) (test item) intravenously; one male and one female were administered RHa-15 subcutaneously; and one male and one female were administered RDV (reference item). Blood samples were taken over a period of 7 days.\nFormulation procedure: Test items RHa-5 and RHa-15 were reconstituted in Required volume of Water for injection (WFI), until a complete solution was obtained. The required volume of WFI was slowly added to RDV formulation (a lyophilate of 3.2% w/w RDV, 96.8% and sodium sulfobutylether-β-cyclodextrin adjusted to pH 3.5 with HCl) and shaken vigorously for 30 seconds. The solution was left for 20 minutes to ensure complete dissolution.\nAdministration: The clinical Remdesivir loading dose in humans is 200 mg. […] Allometric conversion of the dose from humans to small mammals results in an equivalent test dose of 6.17 mg/kg Remdesivir. Test item was administered as follows:\nPK Phase 1: Two animal groups (A and B) of one male and one female each were administered test item RHa-5 at a Remdesivir equivalent dose of 6.17 mg/kg. Group A were administered the test item as a slow (30 seconds) intravenous bolus; and Group B were administered the test item over 30 seconds using the subcutaneous (SC) route into the back of the animal.\nPK Phase 2: Three animal groups (C, D and E) of one male and one female each were included in this study phase. Groups C and D were administered test item RHa-15 at a Remdesivir equivalent dose of 6.17 mg/kg using the IV and SC routes, respectively. Group E were administered 6.17 mg/kg of RDV intravenously. IV administrations were done as a slow (30 seconds) bolus. SC administrations were done over 30 seconds.\nSampling schedule: Blood samples for PK analysis were collected as follows: • Day 1: pre-dose and at 15 min, 30 min, 1 h, 2 h, 4 h, 6 h, and 12 h after administration. • Days 2 to 8: 24, 48, 72, and 168 h after administration.\nA blood volume of 2 mL was collected at each time point from the jugular vein with a 20-21G needle into a lithium heparin tube, and transferred into a tube containing 200 μL 0.15 M citric acid. Immediately following blood collection, the blood samples were mixed gently and kept on crushed ice until centrifugation at 1500 G for 10 min at 4° C. within 30 minutes of collection. Each plasma sample was stored frozen (˜80±10° C.).\nThe quantification range was 0.6 to 14400 ng/mL for Remdesivir and 0.6 to 14400 ng/mL for G441524.\nNon-compartmental pharmacokinetic analysis was adopted to obtain the pharmacokinetic parameters from the blood concentration profiles.\nThe maximum concentration, Cmax, and time of maximum concentration, Tmax, were determined as the maximum measured concentration and its associated time. The area under the plasma concentration curve from 0 hours to the time of the last measurable concentration, AUC0-last, was calculated using linear trapezoidal estimation. […]", "data": [{"smiles": "CCC(CC)COC(=O)[C@H](C)N[P@](=O)(OC[C@H]1O[C@@](C#N)(c2ccc3c(N)ncnn23)[C@H](O)[C@@H]1O)Oc1ccccc1", "note": "[RDV, 2-Ethylbutyl (2S)-2-{[(S)-{[(2R,3S,4R,5R)-5-(4-aminopyrrolo[2,1-f][1,2,4]triazin-7-yl)-5-cyano-3,4-dihydroxytetrahydrofuran-2-yl]methoxy}(phenoxy)phosphoryl]amino}propanoate]", "values": [{"measurement": "AUC(0-inf)", "setting": "both sexes, 6.17 mg/kg", "result": 0.332, "unit": "µg·h/mL"}, {"measurement": "AUC(0-t)", "setting": "both sexes, 6.17 mg/kg", "result": 0.312, "unit": "µg·h/mL"}, {"measurement": "Cmax", "setting": "both sexes, 6.17 mg/kg", "result": 0.364, "unit": "µg/mL"}, {"measurement": "Tmax", "setting": "both sexes, 6.17 mg/kg", "result": 18, "unit": "min"}, {"measurement": "Clast, plasma Remdesivir", "setting": "both, 6.17 mg/kg", "result": 0.002, "unit": "µg/mL"}, {"measurement": "Time with plasma levels of Remdesivir greater than 10 ng/ml", "setting": "both, 6.17 mg/kg", "result": "about 1 hour"}, {"measurement": "Time with plasma levels of Remdesivir greater than 100 ng/ml", "setting": "both, 6.17 mg/kg", "result": "about 30 minutes"}, {"measurement": "t1/2last, plasma Remdesivir", "setting": "both, 6.17 mg/kg", "result": 438, "unit": "min"}, {"measurement": "tlast, plasma Remdesivir", "setting": "both, 6.17 mg/kg", "result": 36, "unit": "h"}, {"measurement": "AUC(0-inf)", "setting": "female, 6.17 mg/kg", "result": 0.293, "unit": "µg·h/mL"}, {"measurement": "AUC(0-t)", "setting": "female, 6.17 mg/kg", "result": 0.265, "unit": "µg·h/mL"}, {"measurement": "Cmax", "setting": "female, 6.17 mg/kg", "result": 0.267, "unit": "µg/mL"}, {"measurement": "Tmax", "setting": "female, 6.17 mg/kg", "result": 15, "unit": "min"}, {"measurement": "Vd", "setting": "female, 6.17 mg/kg", "result": 3920, "unit": "L/kg"}, {"measurement": "concentration at 48 h", "setting": "female, 6.17 mg/kg", "result": 0.0018, "unit": "µg/mL"}, {"measurement": "t1/2last, plasma Remdesivir", "setting": "female, 6.17 mg/kg", "result": 642, "unit": "min"}, {"measurement": "tlast, plasma Remdesivir", "setting": "female, 6.17 mg/kg", "result": 48, "unit": "h"}, {"measurement": "Clearance from blood", "result": "rapidly cleared from blood"}, {"measurement": "AUC(0-inf)", "setting": "male, 6.17 mg/kg", "result": 0.37, "unit": "µg·h/mL"}, {"measurement": "AUC(0-t)", "setting": "male, 6.17 mg/kg", "result": 0.36, "unit": "µg·h/mL"}, {"measurement": "Cmax", "setting": "male, 6.17 mg/kg", "result": 0.462, "unit": "µg/mL"}, {"measurement": "Tmax", "setting": "male, 6.17 mg/kg", "result": 15, "unit": "min"}, {"measurement": "Vd", "setting": "male, 6.17 mg/kg", "result": 1130, "unit": "L/kg"}, {"measurement": "concentration at 24 h", "setting": "male, 6.17 mg/kg", "result": 0.0018, "unit": "µg/mL"}, {"measurement": "t1/2last, plasma Remdesivir", "setting": "male, 6.17 mg/kg", "result": 234, "unit": "min"}, {"measurement": "tlast, plasma Remdesivir", "setting": "male, 6.17 mg/kg", "result": 24, "unit": "h"}]}]}
